Experiments:
[1] = test system: Male obese Zucker diabetic fatty (ZDF fa/fa) rats; assay: Treatment of prediabetic ZDF rats by IP injection (plasma glucose, serum triglycerides); type: in vivo, rat; settings: IP injection 10 mg/kg once daily for three weeks, PEG 300
Description: Male obese Zucker diabetic fatty (ZDF fa/fa) rats were used to test the in vivo activity of compound 1. This animal model develops hyperglycemia and insulin resistance.
In this example, six-week-old male prediabetic ZDF rats (Charles River) are provided rat chow and water ad libidum. The obese rats are divided into a control and a treated groups (n=6 per subgroup).
The compound 1 is dissolved in PEG 300 and administrated by IP injection at a dose of 10 mg/kg once daily for a period of three weeks.
Glucose plasma level can be measured by the commercially available kit using the glucose oxydase method (Sigma Chemical Co.).
(§1) Assay of serum triglycerides may be performed enzymatically using a commercially available kit. In summary, the triglycerides are treated with a lipase in order to generate glycerol and fatty acids. In the presence of ATP, the glycerol is transformed by […] into glycerol-3-phosphate. The glycerol-3-phosphate is subsequently transformed into dihydroxyacetone in generating oxygenated water (H202) which may be detected by formation of quinoneimine in the presence of parachlorophenol, amino-4-antipyrin and peroxydase. The intensity of the quinoneimine coloration is subsequently measured at 505 nm. This coloration is proportional to the quantity of triglycerides present in the sample.

[2] = test system: TA100, TA98, TA 102, TA 1537 and TA 1535; assay: AMES test, overall conclusion over all strains; type: cell-based, Salmonella typhimuriu; settings: absence and presence of S-9
From the text: Gene mutation can be evaluated in vitro, using amino-acid requiring strains of Salmonella typhimuriu. Different protocols for this test have been published (Ames B. N. et al Mutation Res. 1975, 31, 347-364, and Gatehouse D. et al Mutation Res. 1994, 312, 217-233). The principle of this bacterial reverse mutation test is that it detects mutations which revert mutations present in the test strains and restore the functional capability of the bacteria to synthesise an essential amino acid. The revertant bacteria are detected by their ability to grow in the absence of the amino acid required by the parent test strain.
In the present example, the guidelines OECD TG 471 (i.e. AMES Test) was used to detect gene mutation at different doses in the TA100, TA98, TA 102, TA 1537 and TA 1535.
Treatments covering a broad range of concentrations, separated by narrow intervals, were performed both in the absence and presence of metabolic activation (S-9) from Aroclor 1254 induced animals. The compound was formulated in anhydrous analytical grade dimethylsulphoxide (DMSO) and the highest concentration used in was determined following a preliminary cytotoxicity Range-Finder Experiment.

ZDF rats = assay: Treatment of prediabetic ZDF rats by oral administration (plasma triglycerides); type: in vivo, rat
Description: as §1
Following the same experiments as in example 2.2, ZDF rats were used to evaluate the effect of the compound on the glycaemia and the plasma level of triglycerides using the experimental protocol described in example 2.2.
The compound was dissolved in PEG 300 and orally administrated to a series of 8 rats for 2 weeks.

## COc1cc(O)c(/C=N/NC(=O)c2ccc3nccn3c2)c(OC)c1 [Compound 1, [1-(2-hydroxy-4,6-dimethoxy-phenyl)-methylidene]-imidazo[1,2-a]pyridine-6-carbohydrazide]
[1]
  circulating triglycerides: significantly reduce
  plasma level of glucose: significantly reduces
[2]
  mutagenic activity in AMES test: does not exhibit mutagenic activity
ZDF rats; administered orally, 2 weeks
  circulating triglycerides: significantly reduce
ZDF rats; orally administrated for 2 weeks, versus untreated rats
  Reduction of plasma triglycerides: 37.4%
ZDF rats; orally administrated in PEG 300 for 2 weeks, ZDF rats (n = 8)
  Triglycerides, plasma level: 1.02 ± 0.1 mM
